Laboratory results taken from paper PMC10350924, “Design, Synthesis, and Pharmacological Characterization of a Potent Soluble Epoxide Hydrolase Inhibitor for the Treatment of Acute Pancreatitis” (Journal of Medicinal Chemistry, 2023).

Columns and labels:
[1] = Chemical stability in phosphate buffer pH 7.4; assay type: physicochemical; conditions: 5 μM
Source text: The chemical and metabolic stabilities of compounds 6, 27, 28, 30, and 36 were monitored using a UHPLC system (Shimadzu, Kyoto, Japan) consisting of a CBM-40 Lite controller, two LC-40B X3 solvent delivery modules, an SPD-M40 photodiode array detector, a CTO-30A column oven and, a SIL-40AC X3 autosampler. The UHPLC system was coupled online to LCMS-2020 single quadrupole mass spectrometer (Shimadzu, Kyoto, Japan) equipped with an electrospray ionization (ESI) source operating in positive mode.
The chromatographic separation was accomplished on a Luna Omega 1.6 μm Polar C18 100 Å, 100 mm × 2.1 mm (Phenomenex, Bologna, Italy) maintained at 40 °C. The optimal mobile phase consisted of 0.1% HCOOH/H2O v/v (A) and 0.1% HCOOH/ACN v/v (B) delivered at a constant flow rate of 0.3 mL min^–1. Analysis was performed in gradient elution as follows: 0–8.00 min, 30–95% B; 8.00–10.00 min, isocratic to 95% B, then 5 min for column re-equilibration.
The ESI was operated in positive mode, with the following parameters: interface temperature, 350 °C; interface voltage, 4.5 kV; DL (desolvation line) temperature, 250 °C; block heater temperature, 200 °C; nebulizing gas flow (N2), 1.5 L min^–1; drying gas pressure, 15 L min^–1. Quantification was performed in SIM (single-ion monitoring) mode.
For the calibration curves, the primary stock solutions (10 mM) of compounds 6, 27, 28, 30, and 36 were prepared in DMSO. The working standard solutions were prepared by serial dilution of the stock solutions in methanol to obtain necessary concentrations (0.25–10 μM). A solution containing an internal standard (IS: tolbutamide) was prepared at 10 μM in methanol. Quantitation of compounds 6, 27, 28, 30, and 36 was performed using linear regression of the response ratios obtained from the calibration curve to calculate the corresponding amount (6: y = 1.97175x + 0.53508, R^2 = 0.9998; 27: y = 2.90980x + 0.03831, R^2 = 0.9993; 28: y = 2.05962x + 0.02242, R^2 = 0.9994; 30: y = 1.98080x + 0.14962, R^2 = 0.9997; 36: y = 4.59526x – 0.13459, R^2 = 0.9991).
1.25 μL of test compounds (5 μM final incubation concentration) was incubated in 200 μL of phosphate buffer at pH 7.4. At each specified time point (0, 0.5, 1, 1.5, and 2 h), the analyte was removed into 200 μL of ice-cold methanol containing internal standard (tolbutamide) to stop degradation. Finally, the concentration of the test compound was quantified by LC-MS. The percentage of compound remaining (relative to the 0 min time point) at the individual time points is then reported. All experiments were performed in triplicate.

[2] = system: PGE2 production in LPS-stimulated J774 murine macrophages; assay: PGE2 production in LPS-stimulated J774 macrophages; assay type: cell-based; conditions: Mus musculus; J774, 2 h pre-treatment 0.1–10 μM, LPS 10 μg/mL 24 h; read-out: IC50 for reduction of PGE2 levels
Description: Murine monocyte/macrophage J774 cell line was obtained from the American Type Culture Collection (ATTC TIB 67). The cell line was grown in adhesion in Dulbecco’s modified Eagle’s medium (DMEM) supplemented with glutamine (2 mM, Aurogene Rome, Italy), Hepes (25 mM, Aurogene Rome, Italy), penicillin (100 U/mL, Aurogene Rome, Italy), streptomycin (100 μg/mL, Aurogene Rome, Italy), fetal bovine serum (FBS, 10%, Aurogene Rome, Italy), and sodium pyruvate (1.2%, Aurogene Rome, Italy) (DMEM completed). The cells were plated at a density of 1 × 10^6 cells in 75 cm^2 culture flasks and maintained at 37 °C under 5% CO2 in a humidified incubator until 90% confluence. The culture medium was changed every 2 days. Before a confluent monolayer appeared, subculturing cell process was carried out. Cells (0.5 × 10^6 cells/mL) were pretreated for 2 h in the absence or presence of 28 (0.1–10 μM) and then stimulated, for 24 h, with lipopolysaccharide (LPS) from E. coli, Serotype 0111:B4, (10 μg/mL; 100 μL in DMEM completed with FBS, Sigma-Aldrich, Milan, Italy).[42] The supernatants were collected for the measurement of PGE2 levels by ELISA assay (Cayman Chemical, Vinci-Biochem, Vinci, Italy).

[3] = 0.5 h, compound remaining relative to 0 min

SMILES	chemical stability in phosphate buffer (pH 7.4) [1, 3] [%]	chemical stability in phosphate buffer (pH 7.4) ([1]; 1.0 h) [%]	chemical stability in phosphate buffer (pH 7.4) ([1]; 1.5 h) [%]	chemical stability in phosphate buffer (pH 7.4) ([1]; 2.0 h) [%]	IC50 [2] [µM]
O=C(Nc1ccc2c(c1)CCN2Cc1ccc(F)cc1)NC12C[C@H]3C[C@@H](C1)C[C@@H](C2)C3 [Compound 6, 1-((3S,5S,7S)-Adamantan-1-yl)-3-(1-(4-fluorobenzyl)indolin-5-yl)urea]	97.9 ± 3.5	100.7 ± 4.3	100.5 ± 3.5	102.4 ± 0.1	–
O=C(NCC12C[C@H]3C[C@@H](C1)C[C@@H](C2)C3)Nc1ccc2c(ccn2Cc2ccc(F)cc2)c1 [Compound 27, 1-(((3R,5R,7R)-Adamantan-1-yl)methyl)-3-(1-(4-fluorobenzyl)-1H-indol-5-yl)urea]	99.2 ± 1.7	95.5 ± 4.5	98.9 ± 0.2	96.4 ± 0.5	–
CC(C)c1ccc(Cn2ccc3cc(NC(=O)NCC45C[C@H]6C[C@@H](C4)C[C@@H](C5)C6)ccc32)cc1 [Compound 28, 1-(((3R,5R,7R)-Adamantan-1-yl)methyl)-3-(1-(4-isopropylbenzyl)-1H-indol-5-yl)urea]	102.0 ± 2.7	101.7 ± 1.9	99.7 ± 2.3	102.4 ± 1.8	> 10
O=C(NCC12C[C@H]3C[C@@H](C1)C[C@@H](C2)C3)Nc1ccc2c(ccn2CCc2ccc(F)cc2)c1 [Compound 30, 1-(((3R,5R,7R)-Adamantan-1-yl)methyl)-3-(1-(4-fluorophenethyl)-1H-indol-5-yl)urea]	102.5 ± 1.1	100.3 ± 1.9	99.6 ± 0.2	102.4 ± 3.5	–
O=C(NCC12C[C@H]3C[C@@H](C1)C[C@@H](C2)C3)Nc1ccc2c(ccn2C(=O)c2ccc(F)cc2)c1 [Compound 36, 1-(((3R,5R,7R)-Adamantan-1-yl)methyl)-3-(1-(4-fluorobenzoyl)-1H-indol-5-yl)urea]	96.3 ± 3.2	95.2 ± 1.8	99.8 ± 2.1	92.4 ± 2.0	–
